# Experimental data reported in patent publication US12569430B2 (priority 2021, dated 2026).
# Where a name gives a salt, the structure may show the parent alone. Read-outs that look alike come from different tables or passages of the source.
# How the values were obtained:
# [1] = cited from earlier work
# [2] = Saturation solubility of naltrexone in different media; format: physicochemical; details: thermodynamic from solid, read-out: Solubility of API
# [3] = Toxicokinetics after subcutaneous implant; format: in vivo, Yucatan minipigs; details: single subcutaneous implant, 1 g NTX (Group 2) vs 1 g NTX with 10 mg TCA (Group 3)
# [4] = In vitro dissolution of pellets, USP dissolution apparatus II (paddle); details: for Release Triamcinolone, %: n = 1
# Method: The parameters used in the dissolution study are given below.
# A USP dissolution apparatus II (paddle) (Agilent Technologies, Inc., Santa Clara, CA) was used for dissolution method parameters selection. For accelerated dissolution method development multiple parameters were evaluated: • 1). temperature of the dissolution media; • 2). initial wetting of the pellet (by adding detergent and organic solvent); • 3). the mixing speed; and • 4). the pH of the dissolution media used.
# Water was used as the starting media. A sampling timepoint (at 66 or 90 hours) was used for initial dissolution parameter assessment.
# The dissolution tests were performed in “sink” conditions where the amount of solvent was at least 3 times higher than the minimum amount of solvent required for dissolution.
# Therefore, for the next step of the dissolution method development, 20% of ethanol was added to the dissolution media with a phosphate buffer.
# Samples were taken at 8, 24, 48, 72 and 84 hours.
smiles,measurement,setting,value
O=C1CC[C@@]2(O)[C@H]3Cc4ccc(O)c5c4[C@@]2(CCN3CC2CC2)[C@H]1O5 [naltrexone hydrochloride],solubility in EtOH,[1],< 1000 µg/mL
"O=C1CC[C@@]2(O)[C@H]3Cc4ccc(O)c5c4[C@@]2(CCN3CC2CC2)[C@H]1O5 [naltrexone, (4R,4aS,7aR,12bS)-3-(cyclopropylmethyl)-4a,9-dihydroxy-2,4,5,6,7a,13-hexahydro-1H-4,12-methanobenzofuro[3,2-e]isoquinolin-7-one]",solubility,"[2]; pH 5, aqueous buffer, Hanks' Balanced Salt solution pH5.0",770 µg/mL
same,solubility,"[2]; pH 5, aqueous buffer, PBS pH5.0 (1:5)",5210 µg/mL
same,solubility,"[2]; pH 5.5, aqueous buffer, PBS pH5.5 (1:5)",3120 µg/mL
same,solubility,"[2]; pH 5.5, aqueous with cosolvent or surfactant or cyclodextrin, 20% EtOH + 80% PBS pH5.5 (1:10)",5730 µg/mL
same,solubility,"[2]; pH 6, aqueous buffer, PBS pH6.0 (1:5)",2910 µg/mL
same,solubility,"[2]; pH 7.4, aqueous buffer, Hanks' Balanced Salt solution pH7.4",670 µg/mL
same,solubility,"[2]; pH 7.4, aqueous buffer, PBS pH7.4",960 µg/mL
same,solubility,"[2]; pH 8, aqueous buffer, Hanks' Balanced Salt solution pH8.0",650 µg/mL
same,solubility,"[2]; pH 8, aqueous buffer, PBS pH8.0",750 µg/mL
same,Systemic exposure to NTX (Cmax and AUC),[3],did not appear to be impacted
"CC1(C)O[C@@H]2C[C@H]3[C@@H]4CCC5=CC(=O)C=C[C@]5(C)[C@@]4(F)[C@@H](O)C[C@]3(C)[C@]2(C(=O)CO)O1 [triamcinolone acetonide (TCA), triamcinolone acetonide]",Release of triamcinolone acetonide (TCA) from pellets,"[4]; 10 mM Acetate buffer pH 3.8, 50 RPM at 37° C., 8 hrs",24.63%
same,Release of triamcinolone acetonide (TCA) from pellets,"[4]; 10 mM Acetate buffer pH 3.8, 50 RPM at 37° C., 24 hrs",62.64%
same,Release of triamcinolone acetonide (TCA) from pellets,"[4]; 10 mM Acetate buffer pH 3.8, 50 RPM at 37° C., 48 hrs",79.58%
same,Release of triamcinolone acetonide (TCA) from pellets,"[4]; 10 mM Acetate buffer pH 3.8, 50 RPM at 37° C., 72 hrs",79.36%
same,Release of triamcinolone acetonide (TCA) from pellets,"[4]; 10 mM Acetate buffer pH 5.0, 50 RPM at 37° C., 8 hrs",17.27%
same,Release of triamcinolone acetonide (TCA) from pellets,"[4]; 10 mM Acetate buffer pH 5.0, 50 RPM at 37° C., 24 hrs",46.65%
same,Release of triamcinolone acetonide (TCA) from pellets,"[4]; 10 mM Acetate buffer pH 5.0, 50 RPM at 37° C., 48 hrs",69.50%
same,Release of triamcinolone acetonide (TCA) from pellets,"[4]; 10 mM Acetate buffer pH 5.0, 50 RPM at 37° C., 72 hrs",78.13%
same,Release of triamcinolone acetonide (TCA) from pellets,"[4]; 10 mM Acetate buffer pH 5.8, 50 RPM, 8 hrs",4.93%
same,Release of triamcinolone acetonide (TCA) from pellets,"[4]; 10 mM Acetate buffer pH 5.8, 50 RPM, 24 hrs",15.62%
same,Release of triamcinolone acetonide (TCA) from pellets,"[4]; 10 mM Acetate buffer pH 5.8, 50 RPM, 48 hrs",23.89%
same,Release of triamcinolone acetonide (TCA) from pellets,"[4]; 10 mM Acetate buffer pH 5.8, 50 RPM, 72 hrs",29.78%
same,"Release Triamcinolone, %","[4]; 10 mM PBS pH 7.4, 50 RPM, 37° C., 66 hrs",33.12%
same,Release of triamcinolone acetonide (TCA) from pellets,"[4]; 10 mM phosphate buffer pH 5.0, 50 RPM at 37° C., 8 hrs",15.30%
same,Release of triamcinolone acetonide (TCA) from pellets,"[4]; 10 mM phosphate buffer pH 5.0, 50 RPM at 37° C., 24 hrs",47.19%
same,Release of triamcinolone acetonide (TCA) from pellets,"[4]; 10 mM phosphate buffer pH 5.0, 50 RPM at 37° C., 48 hrs",75.78%
same,Release of triamcinolone acetonide (TCA) from pellets,"[4]; 10 mM phosphate buffer pH 5.0, 50 RPM at 37° C., 72 hrs",81.56%
same,Release of triamcinolone acetonide (TCA) from pellets,"[4]; 10 mM phosphate buffer pH 6.0, 50 RPM at 37° C., 8 hrs",12.51%
same,Release of triamcinolone acetonide (TCA) from pellets,"[4]; 10 mM phosphate buffer pH 6.0, 50 RPM at 37° C., 24 hrs",41.72%
same,Release of triamcinolone acetonide (TCA) from pellets,"[4]; 10 mM phosphate buffer pH 6.0, 50 RPM at 37° C., 48 hrs",74.31%
same,Release of triamcinolone acetonide (TCA) from pellets,"[4]; 10 mM phosphate buffer pH 6.0, 50 RPM at 37° C., 72 hrs",80.00%
same,Release of triamcinolone acetonide (TCA) from pellets,"[4]; 10 mM phosphate buffer pH 7.4, 150 RPM at 37° C., 8 hrs",16.66%
same,Release of triamcinolone acetonide (TCA) from pellets,"[4]; 10 mM phosphate buffer pH 7.4, 150 RPM at 37° C., 24 hrs",39.78%
same,Release of triamcinolone acetonide (TCA) from pellets,"[4]; 10 mM phosphate buffer pH 7.4, 150 RPM at 37° C., 48 hrs",52.83%
same,Release of triamcinolone acetonide (TCA) from pellets,"[4]; 10 mM phosphate buffer pH 7.4, 150 RPM at 37° C., 72 hrs",59.58%
same,Release of triamcinolone acetonide (TCA) from pellets,"[4]; 10 mM phosphate buffer/20% EtOH pH 6.0, 50/75 RPM at 37° C., 8 hrs",33.18%
same,Release of triamcinolone acetonide (TCA) from pellets,"[4]; 10 mM phosphate buffer/20% EtOH pH 6.0, 50/75 RPM at 37° C., 24 hrs",87.99%
same,Release of triamcinolone acetonide (TCA) from pellets,"[4]; 10 mM phosphate buffer/20% EtOH pH 6.0, 50/75 RPM at 37° C., 48 hrs",109.67%
same,Release of triamcinolone acetonide (TCA) from pellets,"[4]; 10 mM phosphate buffer/20% EtOH pH 6.0, 50/75 RPM at 37° C., 72 hrs",109.28%
same,Release of triamcinolone acetonide (TCA) from pellets,"[4]; 10 mM phosphate buffer/20% EtOH pH 6.5, 50/75 RPM at 37° C., 8 hrs",28.58%
same,Release of triamcinolone acetonide (TCA) from pellets,"[4]; 10 mM phosphate buffer/20% EtOH pH 6.5, 50/75 RPM at 37° C., 24 hrs",76.69%
same,Release of triamcinolone acetonide (TCA) from pellets,"[4]; 10 mM phosphate buffer/20% EtOH pH 6.5, 50/75 RPM at 37° C., 48 hrs",104.85%
same,Release of triamcinolone acetonide (TCA) from pellets,"[4]; 10 mM phosphate buffer/20% EtOH pH 6.5, 50/75 RPM at 37° C., 72 hrs",104.64%
same,Release of triamcinolone acetonide (TCA) from pellets,"[4]; 10 mM phosphate buffer/20% EtOH pH 7.4, 50/75 RPM at 37° C., 8 hrs",23.48%
same,Release of triamcinolone acetonide (TCA) from pellets,"[4]; 10 mM phosphate buffer/20% EtOH pH 7.4, 50/75 RPM at 37° C., 24 hrs",64.52%
same,Release of triamcinolone acetonide (TCA) from pellets,"[4]; 10 mM phosphate buffer/20% EtOH pH 7.4, 50/75 RPM at 37° C., 48 hrs",98.10%
same,Release of triamcinolone acetonide (TCA) from pellets,"[4]; 10 mM phosphate buffer/20% EtOH pH 7.4, 50/75 RPM at 37° C., 72 hrs",107.29%
same,"Release Triamcinolone, %","[4]; 20 mM Acetate Buffer pH 3.8, 50 RPM, 37° C., 66 hrs",83.52%
same,"Release Triamcinolone, %","[4]; 0.05N HCl, pH 1, 50 RPM, 37° C., 66 hrs",85.59%
same,"Release Triamcinolone, %","[4]; 0.1% SLS in Water, 50 RPM, 37° C., 66 hrs",39.09%
same,"Release Triamcinolone, %","[4]; 20% EtOH, 80% Water, 50 RPM, 37° C., 90 hrs",61.77%
same,"Release Triamcinolone, %","[4]; Water, 50 RPM, 37° C., 90 hrs",31.50%
same,"Release Triamcinolone, %","[4]; Water, 60 RPM, 60° C., 66 hrs",38.63%
same,"Release Triamcinolone, %","[4]; Water, 150 RPM, 37° C., 66 hrs",33.47%
